According to patent US20210071180A1, “MICRORNA 584-5P COMPOSITIONS AND METHODS FOR TREATING CANCER” (BOARD OF REGENTS, THE UNIVERSY OF TEXAS SYSTEM, priority 2018, published 2021):

How the values were obtained:
MB cells = test: Immunofluorescence of mitotic spindles / mitotic catastrophe; type: cell-based
Description: DNA is stained with DAPI (blue), whereas spindle is stained with β-tubulin (red) (below).
Immunofluorescence and Western blot analysis Immunofluorescence analyses was carried out on cells fixed in 4% paraformaldehyde (Imam, J. S. et al. PLoS One 7, e52397, (2012)). […]
VCR disrupts the integrity of the mitotic spindle and destabilizes microtubules (George, P., Journey, L. J. & Goldstein, M. N. J Natl Cancer Inst 35, 355-375 (1965)). […] In FIG. 12A, the p-values were calculated using standard Student t-tests. […] The p-values were calculated using standard Student t-tests. […] In FIG. 11F, the p-values were calculated using standard Student t-tests. […] In FIG. 11H, The p-values were calculated using standard Student t-tests. […] Quantitative real-time PCR. […]

U20S-DR-GFP cells = test: ISceI-based DR-GFP reporter assay of homologous recombination; type: cell-based; settings: cells stably expressing DR-GFP reporter, FACS
Description: Bar graphs next to images show average number of 53BP1 foci/cell. The p-values were determined by two-way ANOVA followed by Sidak's multiple-comparisons test. Error bars represent mean±SEM. Because miR-584-5p induces apoptosis, it was reasoned that DNA strand breaks induced by miR-584-5p and eIF4E3/HDAC1 silencing may not be properly repaired. To confirm those findings, a functional assay was performed to monitor homologous recombination (HR) because HR-dependent events repair IR-induced double-strand breaks in G2 phase. The ISceI-based DR-GFP reporter assay, which measures the frequency of double-strand break repair by HR (Gunn, A., Bennardo, N., Cheng, A. & Stark, J. M. Journal of Biological Chemistry 286, 42470-42482, (2011); Pierce, A. J., Johnson, R. D., Thompson, L. H. & Jasin, M. Genes & Development 13, 2633-2638, (1999); and Stark, J. M., Pierce, A. J., Oh, J., Pastink, A. & Jasin, M. Molecular and Cellular Biology 24, 9305-9316, (2004)), was used. […] U20S-DR-GFP cells were transfected with miR-NC or miR-584-5p or scramble-siRNA or eIF4E3/HDAC1-siRNAs followed by transfection with pCAGGS vector with ISceI/GFP. I-SceI expression leads to double-strand breaks that HR repairs by using the wild-type GFP, resulting in GFP^+ cells. […] The p-values were calculated using either Student t-tests (mimic) or one-way ANOVA followed by Dunnett's multiple-comparisons test (siRNAs). […]

For “miR-584-5p: microRNA mimic; nucleotide sequence UUAUGGUUUGCCUGGGACUGAG (SEQ ID NO: 1); purchased from Thermofisher (chemistry not given here)”, the mitotic catastrophe features (MB cells; miR-584-5p-overexpressing MB cells) was “many cells with multipolar metaphase/anaphase, spindles with unorganized poles, micronuclei, and aneuploidy”, the mitotic spindle defects (MB cells; β-tubulin/DAPI staining) was “variety of mitotic spindle defects” and the “GFP-positive cells (homologous recombination events)” value (U20S-DR-GFP cells) was “significantly fewer GFP-positive cells”.
